Results from patent US20260209249A1, “NOVEL TRICYCLIC COMPOUND AS KRAS G12D INHIBITOR, AND USE THEREOF” (SK Biopharmaceuticals Co., priority 2022, published 2026).

Tests used:
[1] = molecular target: T1, GDP-KRAS G12D mutant protein (Homo sapiens, UniProt P01116, G12D); assay: Differential scanning fluorimetry (DSF) binding affinity to GDP-KRAS G12D mutant protein; conditions: DSF thermal shift, 10 μM compound, 4 μg KRAS protein
T1 construct: purchased Daegu Gyeongbuk Medical Innovation Foundation (DGMIF), made to order
Protocol: (§1) Test Example 1: Measurement of Binding Affinity to KRAS G12D Mutant Protein The binding affinities of the compounds according to one embodiment of the present application to the KRAS G12D mutant protein were evaluated using differential scanning fluorimetry (DSF). Differential scanning fluorimetry (DSF) is a method used to study the stability of a protein upon binding to a compound. The experiment can be performed using a real-time PCR (RT-PCR) instrument, and is commonly employed as a screening technique for small-molecule compounds targeting specific proteins. As the temperature increases, folded proteins begin to unfold, during which a hydrophobic dye such as SYPRO Orange binds to the exposed hydrophobic regions of the protein, resulting in a measurable increase in fluorescence intensity (maximum absorption at 470 nm and maximum emission at 570 nm). Protein-compound binding is determined by the difference in the melting temperature (Tm) of the protein in the presence of the compound compared to the Tm in the absence of the compound, expressed as ΔTm. The binding affinity to the KRAS G12D mutant protein was measured using the Protein Thermal Shift Dye kit (#4461146, Applied Biosystems). The GDP-KRAS G12D mutant protein and GppNHp-KRAS G12D mutant protein used in the experiment were recombinant proteins synthesized by the Daegu Gyeongbuk Medical Innovation Foundation (DGMIF) upon request. The analysis of binding between the compound and the KRAS G12D mutant protein was performed according to the following reaction recipe: each test sample contained 4 μg of KRAS protein, 10 μM of the compound, and 2×SYPRO Orange dye. For the GDP-KRAS G12D protein samples, the buffer provided with the Protein Thermal Shift Dye kit was used, while for the GppNHp-KRAS G12D protein samples, 50 mM HEPES (pH 7.5) buffer was used. For the protein-compound binding reaction, the compound was added to the KRAS G12D mutant protein and reacted at room temperature for 30 minutes, followed by the addition of 2×SYPRO Orange dye. The temperature was increased to 25° C.-99° C. (0.05° C./s) using QuantStudiol RT-PCR instrument (Applied Biosystems), and fluorescence was measured using a ROX reporter with filters of 580±10 nm (excitation)/623±14 nm (emission). The measurements obtained at a compound concentration of 10 μM were analyzed using the Protein Thermal Shift Software program (version v1.4, Thermo Fisher Scientific), and the ΔTm (° C.) values, which indicate the binding affinity of the compound to the KRAS G12D mutant protein, were calculated. The DSF measurement results for the compounds according to one embodiment of the present application with respect to the KRAS G12D mutant protein are shown in Table 2.

[2] = molecular target: T2, GppNHp-KRAS G12D mutant protein (Homo sapiens, UniProt P01116, G12D); assay: Differential scanning fluorimetry (DSF) binding affinity to GppNHp-KRAS G12D mutant protein; conditions: DSF thermal shift, 10 μM compound, 4 μg KRAS protein, 50 mM HEPES (pH 7.5)
T2 construct: purchased Daegu Gyeongbuk Medical Innovation Foundation (DGMIF), made to order
Protocol: as §1

SMILES	GDP-KRAS G12D (ΔTmD, ° C.) [1] [°C]	GppNHp-KRAS G12D (ΔTmD, ° C.) [2] [°C]
C#Cc1c(F)ccc2cc(O)cc(-c3cc4nc(OC[C@@]56CCCN5CC(=C(F)F)C6)nc(N5[C@@H]6CC[C@H]5CNC6)c4n4ccnc34)c12 [Example 106, 4-(1-((1 R,5S)-3,8-diazabicyclo[3.2.1]octan-8-yl)-3-(((S)-2-(difluoromethylene)tetrahydro-1H-pyrrolizin-7a(5H)-yl)methoxy)imidazo[1′,2′:1,6]pyrido[3,2-d]pyrimidin-6-yl)-5-ethynyl-6-fluoronaphthalen-2-ol]	10.21	6.65
C#Cc1c(F)ccc2cc(O)cc(-c3cc4nc(OCC5(CN6CC[C@@H](F)C6)CC5)nc(N5C[C@H]6CC[C@@H](C5)N6)c4n4ccnc34)c12 [Example 30, 4-(1-((1R,5S)-3,8-diazabicyclo[3.2.1]octan-3-yl)-3-((1-(((R)-3-fluoropyrrolidin-1-yl)methyl)cyclopropyl)methoxy)imidazo[1′,2′:1,6]pyrido[3,2-d]pyrimidin-6-yl)-5-ethynyl-6-fluoronaphthalen-2-ol]	8.12	2.81
C#Cc1c(F)ccc2cc(O)cc(-c3cc4nc(OCC5(CN6CCC[C@H](F)C6)CC5)nc(N5[C@@H]6CC[C@H]5CNC6)c4n4ccnc34)c12 [Example 19, 4-(1-((1R,5S)-3,8-diazabicyclo[3.2.1]octan-8-yl)-3-((1-(((S)-3-fluoropiperidin-1-yl)methyl)cyclopropyl)methoxy)imidazo[1′,2′:1,6]pyrido[3,2-d]pyrimidin-6-yl)-5-ethynyl-6-fluoronaphthalen-2-ol]	7.68	3.82
C#Cc1c(F)ccc2cc(O)cc(-c3cc4nc(OC[C@]56CC(=C)CN5C[C@@H](F)C6)nc(N5C[C@H]6CC[C@@H](C5)N6)c4n4ccnc34)c12 [Example 32, 4-(1-((1R,5S)-3,8-diazabicyclo[3.2.1]octan-3-yl)-3-(((2S,7aR)-2-fluoro-6-methylenetetrahydro-1H-pyrrolizin-7a(5H)-yl)methoxy)imidazo[1′,2′:1,6]pyrido[3,2-d]pyrimidin-6-yl)-5-ethynyl-6-fluoronaphthalen-2-ol]	9.05	4.04
Cc1cc2[nH]ncc2c(-c2cc3nc(OC[C@@]45CCCN4C[C@H](F)C5)nc(N4[C@@H]5CC[C@H]4CNC5)c3n3ccnc23)c1C(F)(F)F [Example 18, 1-((1 R,5S)-3,8-diazabicyclo[3.2.1]octan-8-yl)-3-(((2R,7aS)-2-fluorotetrahydro-1H-pyrrolizin-7a(5H)-yl)methoxy)-6-(6-methyl-5-(trifluoromethyl)-1H-indazol-4-yl)imidazo[1′,2′:1,6]pyrido[3,2-d]pyrimidine]	2.35	1.01
C#Cc1c(F)ccc2cc(O)cc(-c3c(F)c4nc(N5CC(N(C)C)C5)nc(N5C[C@H]6CC[C@@H](C5)N6)c4c4cn(C)nc34)c12 [Example 72, 4-(9-((1R,5S)-3,8-diazabicyclo[3.2.1]octan-3-yl)-7-(3-(dimethylamino)azetidin-1-yl)-5-fluoro-2-methyl-2H-pyrazolo[4,3-n]quinazolin-4-yl)-5-ethynyl-6-fluoronaphthalen-2-ol]	−0.29	0.00
C#Cc1c(F)ccc2cc(O)cc(-c3c(F)c4nc(OC[C@@]56CCCN5C[C@H](F)C6)nc(N5[C@@H]6CC[C@H]5CNC6)c4c4cn(C)nc34)c12 [Example 103, 4-(9-((1 R,5S)-3,8-diazabicyclo[3.2.1]octan-8-yl)-5-fluoro-7-(((2R,7aS)-2-fluorotetrahydro-1H-pyrrolizin-7a(5H)-yl)methoxy)-2-methyl-2H-pyrazolo[4,3-n]quinazolin-4-yl)-5-ethynyl-6-fluoronaphthalen-2-ol]	14.80	11.59
C#Cc1c(F)ccc2cc(O)cc(-c3c(F)c4nc(OC[C@@]56CCCN5CC(=C(F)F)C6)nc(N5CC6CCC(C5)N6)c4c4cn(C)nc34)c12 [Example 91, 4-(9-((1R,5S)-3,8-diazabicyclo[3.2.1]octan-3-yl)-7-(((S)-2-(difluoromethylene)tetrahydro-1H-pyrrolizin-7a(5H)-yl)methoxy)-5-fluoro-2-methyl-2H-pyrazolo[4,3-n]quinazolin-4-yl)-5-ethynyl-6-fluoronaphthalen-2-ol]	−0.16	−0.45
C#Cc1c(F)ccc2cc(O)cc(-c3cc4nc(OCC5(CN6CC[C@@H](F)C6)CCC5)nc(N5C[C@H]6CC[C@@H](C5)N6)c4n4ccnc34)c12 [Example 40, 4-(1-((1R,5S)-3,8-diazabicyclo[3.2.1]octan-3-yl)-3-((1-(((R)-3-fluoropyrrolidin-1-yl)methyl)cyclobutyl)methoxy)imidazo[1′,2′:1,6]pyrido[3,2-d]pyrimidin-6-yl)-5-ethynyl-6-fluoronaphthalen-2-ol]	5.95	0.61
C#Cc1c(F)ccc2cc(O)cc(-c3cc4nc(OCC5(CN6CCCC6)CC5)nc(N5C[C@H]6CC[C@@H](C5)N6)c4n4ccnc34)c12 [Example 35, 4-(1-((1R,5S)-3,8-diazabicyclo[3.2.1]octan-3-yl)-3-((1-(pyrrolidin-1-ylmethyl)cyclopropyl)methoxy)imidazo[1′,2′:1,6]pyrido[3,2-d]pyrimidin-6-yl)-5-ethynyl-6-fluoronaphthalen-2-ol]	8.91	2.68
C#Cc1c(F)ccc2cc(N)cc(-c3cc4nc(OC[C@@]56CCCN5CC(=C(F)F)C6)nc(N5[C@@H]6CC[C@H]5CNC6)c4n4ccnc34)c12 [Example 108, 4-(1-((1 R,5S)-3,8-diazabicyclo[3.2.1]octan-8-yl)-3-(((S)-2-(difluoromethylene)tetrahydro-1H-pyrrolizin-7a(5H)-yl)methoxy)imidazo[1′,2′:1,6]pyrido[3,2-d]pyrimidin-6-yl)-5-ethynyl-6-fluoronaphthalen-2-amine]	8.47	5.36
Nc1nc2c(-c3cc4nc(OC[C@@]56CCCN5C[C@H](F)C6)nc(N5C[C@H]6CC[C@@H](C5)N6)c4n4ccnc34)ccc(F)c2s1 [Example 25, 4-(1-((1R,5S)-3,8-diazabicyclo[3.2.1]octan-3-yl)-3-(((2R,7aS)-2-fluorotetrahydro-1H-pyrrolizin-7a(5H)-yl)methoxy)imidazo[1′,2′:1,6]pyrido[3,2-d]pyrimidin-6-yl)-7-fluorobenzo[d]thiazol-2-amine]	0.27	−0.17
C#Cc1c(F)ccc2cccc(-c3cc4nc(OC[C@@]56CCCN5C/C(=C\F)C6)nc(N5C[C@H]6CC[C@@H](C5)N6)c4c4cn(C)nc34)c12 [Example 78, 9-((1 R,5S)-3,8-diazabicyclo[3.2.1]octan-3-yl)-4-(8-ethynyl-7-fluoronaphthalen-1-yl)-7-(((S,Z)-2-(fluoromethylene)tetrahydro-1H-pyrrolizin-7a(5H)-yl)methoxy)-2-methyl-2H-pyrazolo[4,3-n]quinazoline]	5.46	1.17
C#Cc1c(F)ccc2cc(N)cc(-c3cc4nc(OCC5(CN6CCC7(CC6)CC7(F)F)CC5)nc(N5C[C@H]6CC[C@@H](C5)N6)c4c4cn(C)nc34)c12 [Example 76, 4-(9-((1 R,5S)-3,8-diazabicyclo[3.2.1]octan-3-yl)-7-((1-((1,1-difluoro-6-azaspiro[2.5]octan-6-yl)methyl)cyclopropyl)methoxy)-2-methyl-2H-pyrazolo[4,3-f]quinazolin-4-yl)-5-ethynyl-6-fluoronaphthalen-2-amine]	5.17	1.47
CCc1c(F)ccc2cc(O)cc(-c3cc4nc(OC[C@@]56CCCN5C[C@H](F)C6)nc(NCC5(N(C)C)CCC5)c4n4ccnc34)c12 [Example 4, 4-(1-(((1-(dimethylamino)cyclobutyl)methyl)amino)-3-(((2R,7aS)-2-fluorotetrahydro-1H-pyrrolizin-7a(5H)-yl)methoxy)imidazo[1′,2′:1,6]pyrido[3,2-d]pyrimidin-6-yl)-5-ethyl-6-fluoronaphthalen-2-ol]	1.90	0.57
